Where two headings read alike, the source gives them in different places.
Experiments:
hCB2 = hCB2 (Homo sapiens, UniProt P34972); test: In vitro binding assay using hCB2-CHO membranes, [3H]-CP-55,940 displacement (Protocol IV); parameters: expressed in transfected cells; host or cells: CHO (hCB2-CHO, generated in-house); conditions: 1 h, read-out: % Displacement Protocol IV
Method: IV. Protocol for In Vitro Assay Using hCB2-CHO Membranes:
In this assay, [^3H]-CP-55,940 was used as the radioligand to bind human CB2 receptor expressed on the membranes from CHO cells (hCB2-CHO cell line was generated in-house) which can be displaced by unlabeled ligands having affinity to the CB2 receptor.
The assay was performed according to the modified method of Ross et al., 1999 (Br. J. Pharmacol. 128, 735-743). The reaction was set up in a total volume of 200 μl in PEI (0.2%) precoated Millipore GFB filter plates. 1 mM stocks of test compounds were prepared in DMSO and tested at a final concentration of 300 nM. The non-specific binding was determined by 0.5 μM CP-55, 940. The total reaction mixture contained Tris-BSA buffer (50 mM Tris, 5 mM MgCl2, 1 mM EDTA, pH 7.4 with 0.1% BSA), unlabelled CP-55, 940 (0.5 μM) or test samples, [^3H]-CP-55, 940 (0.75 nM) and 25-50 μg of human CB2 receptor preparation. The assay mixture (with or without the test compound) was incubated at 30° C. for 1 hour. The reaction was stopped by rapid filtration under vacuum and the radioactivity on the filters was measured by liquid scintillation counting.
The percent (%) displacement by a test ligand was calculated by comparing the specific bound values.

[1] = hCB2-CHO membranes, [3H]-CP-55,940 displacement

Sequence of hCB2 (P34972 whole entry): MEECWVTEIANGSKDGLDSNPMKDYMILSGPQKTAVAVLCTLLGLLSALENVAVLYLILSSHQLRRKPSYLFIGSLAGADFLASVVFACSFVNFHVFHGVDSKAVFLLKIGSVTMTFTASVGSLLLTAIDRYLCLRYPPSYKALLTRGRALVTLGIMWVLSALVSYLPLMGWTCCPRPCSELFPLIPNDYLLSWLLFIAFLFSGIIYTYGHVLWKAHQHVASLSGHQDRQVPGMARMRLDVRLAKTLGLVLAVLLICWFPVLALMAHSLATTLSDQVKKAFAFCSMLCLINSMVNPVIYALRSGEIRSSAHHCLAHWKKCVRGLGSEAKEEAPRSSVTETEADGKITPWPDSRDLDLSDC

| Structure (SMILES) | melting point [°C] | inhibition at 0.3 µM (hCB2; [1]) [%] | inhibition at 0.3 µM (hCB2) [%] |
| --- | --- | --- | --- |
| O=C(NCc1cccnc1)c1nn(-c2ccc(Cl)cc2)c2c1C1CC3CC(C1)CC2C3 [Example 104, N(7)-(3-Pyridylmethyl)-5-(4-chlorophenyl)-5,6-diazatetracyclo[7.3.1.1^3,11.0^4,8]tetradeca-4(8),6-diene-7-carboxamide] | 180 | 20.2 | – |
| O=C(NCc1ccncc1)c1nn(-c2ccc(Cl)cc2)c2c1C1CC3CC(C1)CC2C3 [Example 105, N(7)-(4-Pyridylmethyl)-5-(4-chlorophenyl)-5,6-diazatetracyclo[7.3.1.1^3,11.0^4,8]tetradeca-4(8),6-diene-7-carboxamide] | 167 to 168 | 22.4 | – |
| O=C(NCc1ccc(F)cc1F)c1nn(-c2ccc(Cl)cc2)c2c1C1CC3CC(C1)CC2C3 [Example 114, N(7)-(2,4-Difluorobenzyl)-5-(4-chlorophenyl)-5,6-diazatetracyclo[7.3.1.1^3,11.0^4,8]tetradeca-4(8),6-diene-7-carboxamide] | 185 | – | 31.7 |
| C[C@@H](NC(=O)c1nn(-c2ccc(F)cc2F)c2c1C1CC3CC(C1)CC2C3)c1ccccc1 [Example 147, N(7)-(R-1-phenylethyl)-5-(2,4-difluorophenyl)-5,6-diazatetracyclo[7.3.1.1^3,11.0^4,8]tetradeca-4(8),6-diene-7-carboxamide] | 123 to 128 | – | 37.1 |
| CC(C)(NC(=O)c1nn(-c2ccc(F)cc2F)c2c1C1CC3CC(C1)CC2C3)c1ccccc1 [Example 148, N(7)-(1-Methyl-1-phenylethyl)-5-(2,4-difluorophenyl)-5,6-diazatetracyclo[7.3.1.1^3,11.0^4,8]tetradeca-4(8),6-diene-7-carboxamide] | 150 to 152 | – | 79.2 |
| CC[C@H](NC(=O)c1nn(-c2ccc(F)cc2F)c2c1C1CC3CC(C1)CC2C3)c1ccccc1 [Example 152, N(7)-[(S)-1-Phenylpropyl]-5-(2,4-difluorophenyl)-5,6-diazatetracyclo[7.3.1.1^3,11.0^4,8]tetradeca-4(8),6-diene-7-carboxamide] | 127 to 129 | – | 60.3 |
| CC(C)(NC(=O)c1nn(-c2ccc(F)cc2F)c2c1C1CC3CC(C1)CC2C3)c1ccccc1Cl [Example 153, N7-[1-(2-Chlorophenyl)-1-methylethyl]-5-(2,4-difluorophenyl)-5,6-diazatetracyclo[7.3.1.1^3,11.0^4,8]tetradeca-4(8),6-diene-7-carboxamide] | 145 to 147 | 99.5 | – |
| O=C(NC12CC3CC(CC(O)(C3)C1)C2)c1nn(-c2ccc(F)cc2F)c2c1C1CC3CC(C1)CC2C3 [Example 156, N7-(3-Hydroxyadamantan-1-yl)-5-(2,4-difluorophenyl)-5,6-diazatetracyclo[7.3.1.1^3,11.0^4,8]tetradeca-4(8),6-diene-7-carboxamide] | 240 to 243 | – | 89.3 |
| CC(C)(NC(=O)c1nn(-c2ccc(F)cc2)c2c1C1CC3CC(C1)CC2C3)c1ccccc1 [Example 157, N(7)-(1-Methyl-1-phenylethyl)-5-(4-fluorophenyl)-5,6-diazatetracyclo[7.3.1.1^3,11.0^4,8]tetradeca-4(8),6-diene-7-carboxamide] | 180 to 182 | – | 88.5 |
| CC12CCC(C1)C(C)(C)C2NC(=O)c1nn(-c2ccc(F)cc2)c2c1C1CC3CC(C1)CC2C3 (stereo not drawn) [Example 159, N7-(1,3,3-Trimethylbicyclo[2.2.1]hept-2-yl)-5-(4-fluorophenyl)-5,6-diazatetracyclo[7.3.1.1^3,11.0^4,8]tetradeca-4(8),6-diene-7-carboxamide] | 139 to 141 | – | 97.7 |
| COc1ccc(-n2nc(C(=O)NN3CCCCC3)c3c2C2CC4CC(CC3C4)C2)cc1 [Example 163, N(7)-Piperidino-5-(4-methoxyphenyl)-5,6-diazatetracyclo[7.3.1.1^3,11.0^4,8]tetradeca-4(8),6-diene-7-carboxamide] | 156 | 14.5 | – |
| O=C(NC1C2CC3CC(C2)CC1C3)c1nn(-c2ccc(F)cc2)c2c1C1CCC2C1 (stereo not drawn) [Example 281, N5-(Adamantan-2-yl)-3-(4-fluorophenyl)-3,4-diazatricyclo[5.2.1.0^2,6]deca-2(6),4-diene-5-carboxamide] | 196 to 198 | – | 97.1 |
| CC(C)(NC(=O)c1nn(-c2ccc(F)cc2)c2c1C1CCC2C1)c1ccccc1 (stereo not drawn) [Example 282, N5-(1-Methyl-1-phenylethyl)-3-(4-fluorophenyl)-3,4-diazatricyclo[5.2.1.0^2,6]deca-2(6),4-diene-5-carboxamide] | 119 to 122 | – | 92.3 |
| O=C(NC12CC3CC(CC(C3)C1)C2)c1nn(-c2ccc(F)cc2)c2c1C1CCC2C1 (stereo not drawn) [Example 283, N5-(Adamantan-1-yl)-3-(4-fluorophenyl)-3,4-diazatricyclo[5.2.1.0^2,6]deca-2(6),4-diene-5-carboxamide] | 189 to 191 | – | 94.8 |
| O=C(NCC1CCCCC1)c1nn(-c2ccc(F)cc2F)c2c1C1CCC2C1 (stereo not drawn) [Example 291, N(3)-(Cyclohexylmethyl)-1-(2,4-difluorophenyl)-4,5,6,7-tetrahydro-1H-4,7-methano-indazole-3-carboxamide] | 94 to 97 | – | – |
| C[C@@H](NC(=O)c1nn(-c2ccc(F)cc2F)c2c1C1CCC2C1)c1ccccc1 (stereo partly drawn) [Example 293, N(3)-(R-1-phenylethyl)-1-(2,4-difluorophenyl)-4,5,6,7-tetrahydro-1H-4,7-methano-indazole-3-carboxamide] | 40 to 45 | – | – |
| CC(C)(NC(=O)c1nn(-c2ccc(F)cc2F)c2c1C1CCC2C1)c1ccccc1Cl (stereo not drawn) [Example 295, N5-[1-(2-Chlorophenyl)-1-methylethyl]-3-(2,4-difluorophenyl)-3,4-diazatricyclo[5.2.1.0^2,6]deca-2(6),4-diene-5-carboxamide] | 176 to 179 | – | 100 |
| CC12CCC(C1)C(C)(C)C2NC(=O)c1nn(-c2ccc(F)cc2F)c2c1C1CCC2C1 (stereo not drawn) [Example 296, N(3)-(1,3,3-Trimethylbicyclo[2.2.1]hept-2-yl)-1-(2,4-difluorophenyl)-4,5,6,7-tetrahydro-1H-4,7-methano-indazole-3-carboxamide] | 114 to 117 | – | 95.9 |
| O=C(NCc1ccc(Cl)cc1)c1nn(-c2ccc(F)cc2F)c2c1C1CCC2C1 (stereo not drawn) [Example 298, N5-(4-Chlorobenzyl)-3-(2,4-difluorophenyl)-3,4-diazatricyclo[5.2.1.0^2,6]deca-2(6),4-diene-5-carboxamide] | 121 to 125 | 11.2 | – |
| CCC(CC)(NC(=O)c1nn(-c2ccc(F)cc2F)c2c1C1CCC2C1)c1ccccc1 (stereo not drawn) [Example 299, N5-(1-Ethyl-1-phenylpropyl)-3-(2,4-difluorophenyl)-3,4-diazatricyclo[5.2.1.0^2,6]deca-2(6),4-diene-5-carboxamide] | 45 to 48 | – | 77.6 |
| CC12CCC(c3c(C(=O)Nc4ccccc4)nn(-c4ccc(Cl)cc4Cl)c31)C2(C)C (stereo not drawn) [Example 401, N(3)-Phenyl-1-(2,4-dichlorophenyl)-7,8,8-trim ethyl-4,5,6,7-tetrahydro-1H-4,7-methano-indazole-3-carboxamide] | 112 to 115 | – | – |

From patent publication US7923465B2, “Cannabinoid receptor ligands, pharmaceutical compositions containing them, and process for their preparation” (priority 2005, dated 2011)
